# Experimental data taken from PMC9569529, “Safe and Efficient Sigma1 Ligand: A Potential Drug Candidate for Multiple Sclerosis” (International Journal of Molecular Sciences, 2022).
# “And” between values parts separate entries of the source, which are not always exact repeats. Equal values may be shown once. Read-outs that look alike come from different tables or passages of the source.
# How the values were obtained:
# S1R = target: T1, S1R (Homo sapiens, UniProt Q99720); experiment: S1R binding assay, [3H](+)-pentazocine, Jurkat cell membranes
# T1 construct: host or cells: Jurkat cell membranes
# T1 sequence (Q99720 whole entry): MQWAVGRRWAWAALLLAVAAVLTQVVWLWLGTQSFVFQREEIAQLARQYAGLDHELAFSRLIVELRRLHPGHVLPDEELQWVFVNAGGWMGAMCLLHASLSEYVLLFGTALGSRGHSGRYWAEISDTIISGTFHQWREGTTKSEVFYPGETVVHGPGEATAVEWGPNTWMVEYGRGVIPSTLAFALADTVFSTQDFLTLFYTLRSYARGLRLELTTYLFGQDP
# Protocol: The binding assays were performed by Eurofins Cerep (Poitiers, France) according to Ganapathy. Briefly, S1R)binding assay was carried out by incubating Jurkat cell membranes ([…] protein per tube) with [^3H] (+)-pentazocine (15 nM) and a range of concentrations of test compounds at 37 °C for 2 h in 5 mM Tris HCl buffer (pH = 7.4). The S2R binding assay was performed by incubating Jurkat cell membranes ([…] protein per tube) with [^3H]-DTG (25 nM) in the presence of (+)-pentazocine (1 mM), to saturate S1R, and a range of concentrations of test compounds at room temperature for 1 h in 5 mM Tris HCl buffer (pH = 7.4). Bound radioactivity was measured using liquid scintillation counting. Nonspecific binding was determined in both assays, under similar conditions, as remaining in the presence of […] unlabeled haloperidol. Inhibition constants (Ki) were calculated from the IC50 values according to the method of Cheng and Prusoff.
# S. typhimurium TA1535 = details: 7i 40 µg/plate
# [1] = Pharmacokinetic study in plasma and brain; format: in vivo, male C57BL/6 mice; details: 1 mg/kg; for Brain/Plasma / Kp at 0.5 h: at 30 min; for Brain AUC t^∞/AUC ∞: unit assumed; for Kp at 0.5 h / Tmax / half-life / concentration at 30 min / bioavailability: male, C57BL/6, mouse
# Protocol: A pharmacokinetic (PK) study was performed by Eurofins Cerep (Poitiers, France) in male C57BL/6 mice (20–30 g) following i.v. and p.o. administrations of compound 7i at 1 mg/kg.
# The plasma and perfused brain samples were collected at 0, 30, 60, 120, 240 and 280 min after treatment administration (n = 3 animal/time point). Animals were terminated under inhalant CO2 euthanasia. Blood was collected via cardiac puncture. Aliquots were collected in tubes coated with lithium heparin and centrifuged. The plasma was harvested and kept frozen at −70 °C until further processing. Immediately following the collection of the blood sample, animals were perfused with heparinized saline (10 IU/mL). The brain was collected, rinsed with saline to remove residual blood, weighed and stored at −70 °C until further analysis.
# Plasma samples were processed using acetonitrile precipitation and analyzed by LC-MS/MS. A plasma calibration curve was generated. Aliquots of drug-free plasma were spiked with compound 7i at the specified concentration levels. The spiked plasma samples were processed together with the unknown plasma samples using the same procedure.
# Each brain was homogenized for 10 s on ice in a proper volume of cold phosphate-buffered saline (PBS) at pH 7.4. The homogenate was centrifuged at 5400× g for 15 min at 4 °C. Supernatants were subsequently processed using acetonitrile precipitation and analyzed by LC-MS/MS. A brain calibration curve was generated. Aliquots of drug-free brain homogenate were spiked with compound 7i at the specified concentration levels. The spiked brain homogenate samples were processed together with the unknown brain homogenate samples using the same procedure.
# Concentrations of compound 7i in the unknown plasma and brain samples were determined using the respective calibration curve. The reportable linear range of the assay was determined, along with the lower limit of quantitation (LLQ).
# The exposure levels of compound 7i in the plasma and brain samples as determined by LC-MS/MS were reported (ng/mL). The [brain]/[plasma] ratios were calculated.
# Pharmacokinetic modeling was performed using the non-compartmental method based on statistical moments. In this method, exchanges between kinetic spaces are expressed in time. The curves were obtained using R software (Package ggplot2, v3.3.6).
# S1R–BiP complex = experiment: S1R-BiP dissociation assay in CHO cells (co-IP, ELISA); format: cell-based
# Protocol: The activity of compound 7i was evaluated in regard to its ability to dissociate the S1R–BiP complex. The S1R–BiP dissociation assay was performed by Amylgen (Montferrier-sur-Lez, France) as described in [13, 79]. Briefly, CHO cells were treated with test compounds for 30 min (37 °C). Crosslinking was performed with dithiobis succinimidyl propionate (DSP; Thermoscientific, Waltham, MA, USA). Lysis was performed after incubation for 15 min on ice. After centrifugation, supernatants were incubated overnight (4 °C) with the S1R antibody (Abcam, Cambridge, UK). Lysates were incubated with Sepharose Protein-A (Invitrogen). After the first centrifugation, the pellet was resuspended in radioimmunoprecipitation assay (RIPA) buffer. After a second centrifugation, the pellet was resuspended in 2× sample buffer/bMCE buffer. After the third centrifugation, supernatants were analyzed for BiP immunoreactivity (SEC343Mu ELISA, USCNK Life Sciences, Wuhan, China).
# QT interval = experiment: ECG QT interval analysis under isoflurane anesthesia; details: for QT Interval Basal / QT Interval 3 min / QT Interval 6 min / QT Interval 10 min / QT Interval 20 min / QT Interval 30 min: in ms (unit assumed); for QT Interval 3 min: 3 min after injection; for QT Interval 6 min: 6 min after injection; for QT Interval 10 min: 10 min after injection; for QT Interval 20 min: 20 min after injection; for QT Interval 30 min: 30 min after injection
# Protocol: Four electrodes were inserted subcutaneously in the mouse limbs. Electrical signals were recorded with a Powerlab (Ad instruments) and analyzed with LabChart Pro software (v8.1.19).
# Heart rate and PR, QRS and QT intervals were measured as described in Supplementary Figure S3.
# five bacterial strains = experiment: Ames test, overall conclusion on five bacterial strains; details: ±S9, 0.37 to 40 µg/plate
smiles,measurement,setting,value
O=C(NCCCNCc1ccccc1)c1ccc(Cl)cc1 [compound 7i-deMe],Ki,S1R,23 nM
CN(CCCNC(=O)c1ccc(Cl)cc1)Cc1ccccc1 [compound 7i],Ames TA1535 +S9 (Mean revertants/well per title),"S. typhimurium TA1535; +S9, positive control 2-anthramine 0.5",0.9
same,Ames TA1535 −S9 (Mean revertants/well per title),"S. typhimurium TA1535; −S9, positive control MNNG 0.25",1.3
same,"increase of total clearance, p.o. versus i.v.",[1],20 times
same,C30 after i.v. relative to p.o.,[1]; in the plasma or in the brain,more than 10 times
same,CLT,[1]; i.v.,3.8 mL/min
same,CLbrain,[1]; i.v.,1.8 mL/min
same,D (diffusion in the brain),[1]; i.v.,62% and 61.7%
same,MAT,[1]; i.v.,0 min
same,Plasma AUC t^∞/AUC ∞,[1]; i.v.,0.9
same,Brain/Plasma,[1]; i.v.,2.9
same,Brain AUC t^∞/AUC ∞,"[1]; i.v., brain",5.9%
same,Plasma Cmax (simulated),"[1]; i.v., mouse plasma, simulated",180 ng/mL
same,Kp at 0.5 h,"[1]; brain, iv",3
same,Tmax,"[1]; brain, iv, i.v., brain, read-out: Brain tmax",≤ 30 min
same,half-life,"[1]; brain, iv, read-out: Brain t1/2 el",96.4 min
same,Kp at 0.5 h,"[1]; brain, po",3
same,Tmax,"[1]; brain, po, p.o., brain, read-out: Brain tmax",≤ 30 min
same,half-life,"[1]; brain, po, read-out: Brain t1/2 el",78.9 min
same,concentration at 30 min,"[1]; iv, brain, read-out: Brain C30",234 ng/mL
same,bioavailability,"[1]; plasma, iv",100%
same,concentration at 30 min,"[1]; plasma, iv, read-out: Plasma C30",79.8 ng/mL
same,Tmax,"[1]; plasma, iv, i.v., mouse plasma, read-out: Plasma tmax",0 min
same,half-life,"[1]; plasma, iv, read-out: Plasma t1/2 el",44.5 min
same,bioavailability,"[1]; plasma, po",5%
same,concentration at 30 min,"[1]; plasma, po, read-out: Plasma C30",6.4 ng/mL
same,Tmax,"[1]; plasma, po, p.o., mouse plasma, read-out: Plasma tmax",< 30 min
same,half-life,"[1]; plasma, po, read-out: Plasma t1/2 el",25.5 min
same,concentration at 30 min,"[1]; po, brain, read-out: Brain C30",20.7 ng/mL
same,CLT,[1]; p.o.,74.9 mL/min
same,CLbrain,[1]; p.o.,12.8 mL/min
same,MAT,[1]; p.o.,16.5 min
same,Plasma AUC t^∞/AUC ∞,[1]; p.o.,6.1
same,Vd,[1]; p.o.,0.168 L/kg
same,Brain/Plasma,[1]; p.o.,3.2
same,Brain AUC t^∞/AUC ∞,"[1]; p.o., brain",7.6%
same,effect on S1R–BiP association,"S1R–BiP complex; 1 and 10 µM, 30-min incubation",significantly causes a dose-dependent dissociation
same,S1R functional activity,S1R–BiP complex; S1R–BiP dissociation blocked by NE-100,agonist capacity
same,effect on S1R–BiP dissociation in presence of NE-100,S1R–BiP complex; co-treatment with NE-100 (10 µM),blocked
same,S1R antagonist capacity (co-treatment with PRE-084),S1R–BiP complex; co-treatment with PRE-084 (10 µM),absence of antagonist capacity
same,QT Interval Basal,QT interval; 0.5 mg/kg i.p. group,49 ± 3
same,QT Interval 3 min,QT interval; 0.5 mg/kg i.p.,48 ± 4
same,QT Interval 6 min,QT interval; 0.5 mg/kg i.p.,46 ± 4
same,QT Interval 10 min,QT interval; 0.5 mg/kg i.p.,53 ± 3
same,QT Interval 20 min,QT interval; 0.5 mg/kg i.p.,59 ± 4
same,QT Interval 30 min,QT interval; 0.5 mg/kg i.p.,58 ± 3
same,QT Interval Basal,QT interval; 1.0 mg/kg i.p. group,48 ± 1
same,QT Interval 3 min,QT interval; 1.0 mg/kg i.p.,45 ± 2
same,QT Interval 6 min,QT interval; 1.0 mg/kg i.p.,46 ± 2
same,QT Interval 10 min,QT interval; 1.0 mg/kg i.p.,>49 ± 1
same,QT Interval Basal,QT interval; 10.0 mg/kg i.p. group,46 ± 1
same,QT Interval 3 min,QT interval; 10.0 mg/kg i.p.,43 ± 1
same,QT Interval 6 min,QT interval; 10.0 mg/kg i.p.,45 ± 3
same,QT Interval 10 min,QT interval; 10.0 mg/kg i.p.,49 ± 2
same,QT Interval 20 min,QT interval; 10.0 mg/kg i.p.,52 ± 1
same,QT Interval 30 min,QT interval; 10.0 mg/kg i.p.,54 ± 1
same,"cardiac repolarization (QT interval), conclusion",QT interval; 0.5 to 10 mg/kg i.p.,no alteration in cardiac repolarization
same,"heart rate, PR and QRS duration",QT interval; 0.5 to 10 mg/kg i.p.,did not alter
same,pro-arrhythmic effect,QT interval; 0.5 to 10 mg/kg i.p.,does not induce a pro-arrhythmic effect
same,"mutagenic effects (Ames, conclusion)",five bacterial strains,no mutagenic effects
